Data taken from paper PMC7998748, “A Unique Acylated Flavonol Glycoside from Prunus persica (L.) var. Florida Prince: A New Solid Lipid Nanoparticle Cosmeceutical Formulation for Skincare” (Antioxidants, 2021).

Columns and labels:
ABTS assay = assay: ABTS assay
From the text: (§1) The DPPH assay was peformed using the method of Yardpiroon et al., Vitamin C was used as a positive control. The ABTS assay followed the method of Re et al., [40], Vitamin C was used as a standard. The β-carotene bleaching assay used the method described by Soulef et al., [14] in the presence of the positive control BHT. The value for each test sample was presented as the inhibition curve at 50% or IC50.

DPPH assay = assay: DPPH assay
From the text: as §1

mushroom tyrosinase = mushroom tyrosinase (Agaricus bisporus, UniProt C7FF04); assay: Anti-tyrosinase assay; format: biochemical; settings: 300 μg/mL tested samples; positive control kojic acid (methods: 1.4 mg/mL)
Method: For the anti-tyrosinase assay, 5600 units/mL of mushroom tyrosinase was incubated with each of the tested extracts or 1.4 mg/mL kojic acid (standard inhibitor) for 15 min at 37 °C before adding 1 mM L-DOPA as a substrate. The absorbance of the formed dopachrome was measured at 475 nm. The tested samples were used in a concentration range of 75–500 µg/mL.

[1] = β-carotene bleaching assay; settings: after 30 min
From the text: as §1

[2] = target: collagenase type 1 from Clostridium histolyticum (Hathewaya histolytica (Clostridium histolyticum), UniProt Q46085); assay: biochemical; settings: read-out: Anti-Collagenase % Inhibition
[3] = MTT cytotoxicity in human keratinocytes; format: cell-based; settings: human keratinocytes cell line, 1 mg/mL, read-out: cell viability (cells survived)
Method: (§2) The human keratinocytes cell line was obtained from VACSERA CO. (The Egyptian Company for the Production of Vaccines, Sera, and Drugs, Giza, Egypt). The MTT assay was done for PPEE and PPEE-SLNs according to the method of Mostafa et al..
(§3) The MTT assay was used to test whether PPEE, PPEE-SLNs, and KDPAG could affect cell viability using human keratinocytes. Different concentrations of PPEE, PPEE-SLNs, extract-free-SLNs and KDPAG at 0.0625– 1mg/mL were incubated over 24 h with a human keratinocytes cell line (Figure 2). […] However, after treatment with 1 mg/mL of PPEE, PPEE-SLNS, Extract-free-SLNs, and KDPAG over 24 h, a significant reduction in cell viability of human keratinocytes was observed, 93%, 90%, 95%, and 89% of the cells survived, respectively. Thus, concentrations of PPEE, PPEE-SLNs, and KDPAG equal to or lower than 0.5 mg/mL were used for subsequent studies.

[4] = test system: human keratinocytes cell line; assay: MTT cytotoxicity in human keratinocytes; format: cell-based; settings: 0.0625–0.5 mg/mL, 24 h
Method: as §2, §3

human leukocyte elastase = target: T1, human leukocyte elastase (Homo sapiens, UniProt P08246); assay: Anti-elastase assay; format: biochemical
T1 sequence (P08246 30-267): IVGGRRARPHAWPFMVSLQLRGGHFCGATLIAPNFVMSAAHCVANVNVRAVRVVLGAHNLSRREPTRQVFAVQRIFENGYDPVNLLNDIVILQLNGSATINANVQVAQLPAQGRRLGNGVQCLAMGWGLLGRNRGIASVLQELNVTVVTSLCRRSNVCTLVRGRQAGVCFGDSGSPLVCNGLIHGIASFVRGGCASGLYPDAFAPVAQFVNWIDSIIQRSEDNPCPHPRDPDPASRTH
Method: The anti-aging and skin whitening activities were assessed following the methods reported by Mostafa et al.. For the anti-elastase assay, 1 μg/mL of human leukocyte elastase was incubated with HEPES buffer pH 7.5 and each of the tested extracts or 1.4 mg/mL N-Methoxysuccinyl-Ala-Ala-Pro-chloromethyl ketone (standard inhibitor) in a 96-well plate for 20 min at room temperature before the addition of 100 μL of 1 mM N-Methoxysuccinyl-Ala-Ala-Pro-Val-p-nitroanilide as a substrate. After 40 min incubation the absorbance was measured at 405 nm with a well devoid of extract/inhibitor serving as a blank. The tested samples were used in a concentration range of 25–300 µg/mL.

Sequence of collagenase type 1 from Clostridium histolyticum (Q46085 41-1021 limits assumed): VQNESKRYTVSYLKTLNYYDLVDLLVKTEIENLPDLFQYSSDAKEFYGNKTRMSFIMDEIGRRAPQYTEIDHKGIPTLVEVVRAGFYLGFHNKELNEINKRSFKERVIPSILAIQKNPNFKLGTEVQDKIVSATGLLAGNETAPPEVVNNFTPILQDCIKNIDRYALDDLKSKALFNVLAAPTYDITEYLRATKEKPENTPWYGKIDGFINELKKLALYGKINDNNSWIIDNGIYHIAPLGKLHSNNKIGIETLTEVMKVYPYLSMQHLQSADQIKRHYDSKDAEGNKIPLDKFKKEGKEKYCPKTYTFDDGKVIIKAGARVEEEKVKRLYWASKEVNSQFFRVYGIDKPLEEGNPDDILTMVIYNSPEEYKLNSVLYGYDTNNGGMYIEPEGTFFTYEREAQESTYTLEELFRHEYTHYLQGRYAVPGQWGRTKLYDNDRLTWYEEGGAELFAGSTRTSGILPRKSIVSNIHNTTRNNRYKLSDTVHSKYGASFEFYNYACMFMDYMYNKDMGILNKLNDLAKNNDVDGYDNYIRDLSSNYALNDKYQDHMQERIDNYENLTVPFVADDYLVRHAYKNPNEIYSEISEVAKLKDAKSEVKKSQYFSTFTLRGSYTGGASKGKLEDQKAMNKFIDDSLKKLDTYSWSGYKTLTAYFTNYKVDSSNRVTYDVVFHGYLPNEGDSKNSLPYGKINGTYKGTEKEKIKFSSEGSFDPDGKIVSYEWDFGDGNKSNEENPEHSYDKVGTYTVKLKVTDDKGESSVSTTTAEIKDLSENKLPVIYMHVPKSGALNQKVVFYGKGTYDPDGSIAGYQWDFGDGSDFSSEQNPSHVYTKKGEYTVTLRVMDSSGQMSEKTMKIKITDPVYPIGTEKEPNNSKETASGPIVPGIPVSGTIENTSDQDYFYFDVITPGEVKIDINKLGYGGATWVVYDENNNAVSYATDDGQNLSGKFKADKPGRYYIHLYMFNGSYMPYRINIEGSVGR
Sequence of mushroom tyrosinase (G1K3P4 entry or part of it): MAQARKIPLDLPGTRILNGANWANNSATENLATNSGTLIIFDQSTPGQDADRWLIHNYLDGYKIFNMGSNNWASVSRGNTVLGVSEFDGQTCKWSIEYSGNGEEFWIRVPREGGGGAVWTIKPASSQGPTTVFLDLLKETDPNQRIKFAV
Sequence of mushroom tyrosinase (C7FF04 1-392): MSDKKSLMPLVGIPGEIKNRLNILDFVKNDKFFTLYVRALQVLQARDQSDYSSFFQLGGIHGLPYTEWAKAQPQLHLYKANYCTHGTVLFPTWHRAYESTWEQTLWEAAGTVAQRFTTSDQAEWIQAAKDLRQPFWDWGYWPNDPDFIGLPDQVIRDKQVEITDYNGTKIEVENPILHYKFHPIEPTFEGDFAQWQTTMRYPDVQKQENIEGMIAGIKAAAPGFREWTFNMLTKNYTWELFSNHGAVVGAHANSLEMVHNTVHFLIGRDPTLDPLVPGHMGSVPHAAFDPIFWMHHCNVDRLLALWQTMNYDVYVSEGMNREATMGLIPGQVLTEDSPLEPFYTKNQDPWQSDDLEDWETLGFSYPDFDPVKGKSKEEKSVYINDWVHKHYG

| SMILES | ABTS IC50 (ABTS assay) | DPPH IC50 (DPPH assay) | inhibition at 300 µg/mL (mushroom tyrosinase) | β-carotene assay IC50 [1] | inhibition at 1400 µg/mL [2] | viability at 24 h, 1 mg/mL [3] | reduction in cell viability [4] | inhibition at 1400 µg/mL (human leukocyte elastase; 300 μg/mL tested samples, positive control N-(Methoxysuccinyl)-Ala-Ala-Pro-Val-chloromethyl ketone (methods: 1.4 mg/mL)) | IC50 (human leukocyte elastase; positive control N-(Methoxysuccinyl)-Ala-Ala-Pro-Val-chloromethyl ketone) |
| --- | --- | --- | --- | --- | --- | --- | --- | --- | --- |
| O=C1O[C@H]([C@@H](O)CO)C(O)=C1O [vitamin C, reference compound] | 0.96 ± 0.02 µg/mL | 2 ± 0.01 µg/mL | – | – | – | – | – | – | – |
| O=C(Cc1ccc(O)c(O)c1)OC[C@H]1O[C@@H](Oc2c(-c3ccc(O)cc3)oc3cc(O)cc(O)c3c2=O)[C@H](O)[C@@H](O)[C@@H]1O [KDPAG, kaempferol 3-O-β-^4C1-(6″-O-3,4-dihydroxyphenylacetyl glucopyranoside)] | 3.91 ± 1.43 µg/mL | 6.35 ± 3.40 µg/mL | 85.7 ± 2.1% | 1.73 ± 0.05 µg/mL | 91.1 ± 2.45% | 89% | no observed significant reduction | 89.2 ± 1.26% | 83.2 µM |
| Cc1cc(C(C)(C)C)c(O)c(C(C)(C)C)c1 [BHT, reference compound] | – | – | – | 8.06 ± 0.67 µg/mL | – | – | – | – | – |
